Data published in patent publication US20060079493A1, “Methods for treating genetically- defined proliferative disorders with hsp90 inhibitors” (priority 2001, published 2006).
Read-outs that look alike come from different tables or passages of the source.

Columns and labels:
[1] = system: bcr-abl expressing leukemia cell lines; settings: average of six cell lines; read-out: IC50 averaged in six bcr-abl expressing leukemia cell lines; cited from earlier work
[2] = system: bcr-abl-negative leukemia lines; settings: mean of four cell lines; read-out: mean IC50 in a panel of four bcr-abl-negative leukemia lines; cited from earlier work
[3] = system: K562 cells; assay: MTS assay, cytotoxicity (growth inhibition) on K562; type: cell-based, human; settings: for Metabolic Activity K562: MTS, 3-6 days, DMSO control = 100%
Experimental: The cell line is widely available, e.g., from American Type Culture Collection (“ATCC”; Manassas, Va., USA; cat# CCL-243) and can be propogated in a variety of media, e.g., ATCC's Iscove's modified Dulbecco's medium with 4 mM L-glutamine adjusted to contain 1.5 g/L sodium bicarbonate, 90%; fetal bovine serum, 10%; 37C.
(§1) To K562 cells (suspension grown in DMEM media supplemented w/10% Fetal Bovine Serum (FBS) and 1 mM HEPES; subcultured biweekly at 100K cells/ml) in a 96 well plate (0.1 ml medium; 2000 cells per well) were added various concentrations of 17-AAG (CF7) and the effects measured over a period of 3-6 days using an MTS assay protocol similar to that offered by Promega Corp (Madison, Wis., US; cat# G5421).
(§2) The MTS assay is a colorimetric assay for determining the number of viable cells in proliferation, cytotoxicity or chemosensitivity assays. The CellTiter 96® AQueous Assay is composed of solutions of tetrazolium compound (3-(4,5-dimethylthiazol-2-yl)-5-(3-carboxymethoxyphenyl)-2-(4-sulfophenyl)-2H-tetrazolium, inner salt; MTS) and an electron coupling reagent (phenazine methosulfate) PMS. MTS is bioreduced by cells into a formazan that is soluble in tissue culture medium. Barltrop et al. (1991) Bioorg. & Med. Chem. Lett. 1, 611. The absorbance of the formazan at 490 nm can be measured directly from 96 well assay plates without additional processing. Cory et al. (1991) Cancer Commun. 3, 207; Riss, T. L. and Moravec, R. A. (1992) Mol. Biol. Cell 3 (Suppl.), 184a. The conversion of MTS into the aqueous soluble formazan is accomplished by dehydrogenase enzymes found in metabolically active cells. The quantity of formazan product as measured by the amount of 490 nm absorbance is directly proportional to the number of living cells in culture.
(§3) Using the MTS assay, cytotoxicity (defined as “growth inhibition” and not necessarily versus renal proximal tubular […] cells (normal cells) was determined as shown in the following Tables. “Sem” refers to standard error of the mean, which is calculated as the standard deviation divided by the square root of the sample size; the numbers reflect triplicate replicates. Dilutions of the compounds were prepared in DMSO and straight DMSO was used as a control corresponding to 100% metabolic activity.

[4] = system: RPTEC; assay: MTS assay, cytotoxicity (growth inhibition) on normal cells RPTEC; type: cell-based; settings: for IC50: read-out: RPTEC IC50; for Metabolic Activity RPTEC: MTS, 3-6 days, DMSO control = 100%
Experimental: as §1, §2, §3

[5] = Homo sapiens, K562, read-out: K562 IC50
[6] = separate study, compared with compound 237

## CO[C@H]1[C@@H](OC)C[C@H](C)[C@@H](OC)C2=CC(=O)C=C(NC(=O)/C(C)=C/C=C\[C@H](OC)[C@@H](OC(N)=O)/C(C)=C/[C@@H]1C)C2=O [herbimycin A]
[1]
  IC50: 29.3 nM
[2]
  IC50: 399 nM

## COC1/C=C\C=C(/C)C(=O)NC2=CC(=O)C(NCCCN(C)CCCNC3=C4CC(C)CC(OC)C(O)C(C)/C=C(\C)C(OC(N)=O)C(OC)/C=C\C=C(/C)C(=O)NC(=CC3=O)C4=O)=C(CC(C)CC(OC)C(O)C(C)/C=C(\C)C1OC(N)=O)C2=O (stereo not shown) [Compound 208]
[3]; [5]
  IC50: 50 nM
[4]; Homo sapiens, RPTEC
  IC50: 1000 nM

## COC1/C=C\C=C(/C)C(=O)NC2=CC(=O)C(NCCCNCCCNC3=C4CC(C)CC(OC)C(O)C(C)/C=C(\C)C(OC(N)=O)C(OC)/C=C\C=C(/C)C(=O)NC(=CC3=O)C4=O)=C(CC(C)CC(OC)C(O)C(C)/C=C(\C)C1OC(N)=O)C2=O (stereo not shown) [Compound 237]
[3]; [5]
  IC50: 100 nM
[4]; Homo sapiens, RPTEC
  IC50: 4000 nM

## C[C@@H]1C[C@H]2O[C@@H]2/C=C\C=C\C(=O)Cc2c(Cl)c(O)cc(O)c2C(=O)O1 [radicicol]
[3]; [6]
  effect on K562 (separate study): approximating those obtained for compound 237
[4]; [6]
  effect on RPTEC (separate study): approximating those obtained for compound 237

## CCCNC/C=C/CNC1=C2CC(C)CC(OC)C(O)C(C)/C=C(\C)C(OC(N)=O)C(OC)/C=C\C=C(/C)C(=O)NC(=CC1=O)C2=O (stereo not shown) [Compound 481]
[3]; [5]
  IC50: 400 nM
[4]; Homo sapiens, RPTEC
  IC50: 4000 nM

## C=CCNC1=C2C[C@@H](C)C[C@H](OC)[C@H](O)[C@@H](C)/C=C(\C)[C@H](OC(N)=O)[C@@H](OC)/C=C\C=C(/C)C(=O)NC(=CC1=O)C2=O [CF7, 17-allylamino-17-demethoxygeldanamycin]
[3]; 0.0003 uM
  Metabolic Activity K562: 88.00%
[3]; 0.0010 uM
  Metabolic Activity K562: 83.81%
[3]; 0.0030 uM
  Metabolic Activity K562: 83.00%
[3]; 0.0100 uM
  Metabolic Activity K562: 85.94%
[3]; 0.0300 uM
  Metabolic Activity K562: 80.12%
[3]; 0.1000 uM
  Metabolic Activity K562: 44.06%
[3]; 0.3000 uM
  Metabolic Activity K562: 14.40%
[3]; 1.0000 uM
  Metabolic Activity K562: 9.51%
[3]; 3.0000 uM
  Metabolic Activity K562: 8.12%
[3]; 10.0000 uM
  Metabolic Activity K562: 7.89%
[3]; bcr-abl fusion protein cancer line, MTS assay, read-out: K562 IC50
  IC50: 70 nM
[4]; 0.0003 uM
  Metabolic Activity RPTEC: 98.69%
[4]; 0.0010 uM
  Metabolic Activity RPTEC: 92.26%
[4]; 0.0030 uM
  Metabolic Activity RPTEC: 92.73%
[4]; 0.0100 uM
  Metabolic Activity RPTEC: 91.81%
[4]; 0.0300 uM
  Metabolic Activity RPTEC: 86.40%
[4]; 0.1000 uM
  Metabolic Activity RPTEC: 86.46%
[4]; 0.3000 uM
  Metabolic Activity RPTEC: 58.03%
[4]; 1.0000 uM
  Metabolic Activity RPTEC: 34.01%
[4]; 3.0000 uM
  Metabolic Activity RPTEC: 22.01%
[4]; 10.0000 uM
  Metabolic Activity RPTEC: 20.10%
[4]; normal cells, MTS assay
  IC50: 400 nM

## COC1/C=C\C=C(/C)C(=O)NC2=CC(=O)C(NCCN(C)CCNC3=C4CC(C)CC(OC)C(O)C(C)/C=C(\C)C(OC(N)=O)C(OC)/C=C\C=C(/C)C(=O)NC(=CC3=O)C4=O)=C(CC(C)CC(OC)C(O)C(C)/C=C(\C)C1OC(N)=O)C2=O (stereo not shown) [Compound 483]
[3]; Homo sapiens, K562, bcr-abl fusion protein cancer line, MTS assay, read-out: K562 IC50
  IC50: 70 nM
[4]; Homo sapiens, RPTEC
  IC50: 1000 nM
